Assay [1] has as its system UPS system and muscle degradation genes. The experiment in a line: qRT-PCR of genes involved in catabolic pathways leading to muscle degradation. Format: cell-based, human. The conditions noted are these: 10 μM; immortalized and primary DM1 myoblasts. As for the experimental part:
FIG. 13. MSI2 inhibition in DM1 myoblasts improves pathological phenotypes. (A) MSI2 quantification by western blot and representative blots in control (orange) and DM1 myoblasts treated with vehicle 0.8% DMSO (gray) or 10 μM Ro-08-2750 (red) during the last 48 h of 7-day differentiated myotubes; GAPDH expression was used as an endogenous control. (B) Quantification by qRT-PCR of MSI2 and its direct targets miR-7, P21, and TGFBR1 in the same conditions as those described in (A). (C) Quantification by qRT-PCR of the relative expression of genes involved in catabolic pathways leading to muscle degradation in DM1 treated with vehicle (gray dashed line) and control myoblasts (orange) or DM1 cells treated with compound (red). […] (G) Quantification of myogenic fusion index of the conditions represented in (D)-(F) at 7, 10, and 14 days of differentiation (n=10-15 images). (K) Quantification of the number of LC3 puncta per square micrometer. […] Quantification by western blot of (L) ATG4A and (M) ATG7. Representative blots used for quantification are shown on the side of the bar graphs. […]
FIG. 14. […] (A and B) Quantification by qRT-PCR of the indicated genes in control primary myoblasts (line CNT-10, orange dashed line) and two DM1 lines, DM1-14 and DM1-16, treated with vehicle (0.8% DMSO; gray) or 10 μM Ro-08-2750 (red) for 48 h in 7-day differentiation cultures. […]
(Real-time PCR tracks product formation cycle by cycle.)

For the next assay, the system named is DM1-14 and DM1-16 lines. The experiment in a line: Fusion capacity of primary DM1 myoblasts (Desmin immunostaining). Format: cell-based, human. The conditions noted are these: primary myoblasts cultured for 7 days; 10 μM. The protocol:
To treat primary myoblasts, CNT-10, DM1-14, and DM1-16 with the small molecule Ro 08-2750 cells were cultured as before. […] Information about biopsy donors is compiled in Table 1.
Desmin immunostaining and fusion index and diameter determination were performed as previously described^3. For MSI2 immunodetection, 3.5×10^4 fibroblasts/well were seeded in 24 well plates. After 7 days of differentiation into myotubes, cells were fixed with 4% paraformaldehyde (PFA) for 15 min. After 3 washes with PBS-T (0.1%×-TritonX-100 in PBS 1×) cells were blocked (PBS-T, 1% BSA, 5% normal goat serum) for 1 h and incubated with rabbit anti-MSI2 antibody (1:100, Abcam, EP1305Y, Cambridge, UK) in blocking buffer for 48 h at 4° C. After three washes with PBS-T, cells were incubated for 1 h with goat anti-rabbit-FITC IgG (1:200, Sigma-Aldrich, St. Louis, Missouri) in blocking buffer. Finally, cells were washed thrice with PBS 1× and were counterstained and mounted with VECTASHIELD® mounting medium containing DAPI (Vector Laboratories, London, UK) to detect the nuclei. Images were taken in a confocal microscope LSM800 (Zeiss) at 400× magnification.

For a further assay, the system named is P21. The experiment in a line: P21 expression by RT-qPCR in MD1 muscle cells. Format: cell-based, H. sapiens. The protocol:
TDMs were cultured as previously described^1. After 4 days in differentiation medium (MDM), cells were transfected with a combination of two siRNAs (SEQ ID NO: 40 and 43) targeting MSI2 transcripts (final concentration 100 nM) using Lipofectamine RNAiMAX transfection reagent (Invitrogen, Madrid, Spain)) following the manufacturer's recommendations. After 48 h, the medium containing the siRNAs was replaced by fresh MDM. 24 h later, cells were collected. As a control, the same protocol was performed using 100 nM of a siRNA with a scrambled sequence (Cat #4390843 for negative control). Gapmers against MSI2 and agomiR-107 were transfected following the same protocol using two different concentrations, 30 and 150 nM in the case of Gapmers and 100 and 300 nM in the case of agomiR-107. To treat cells with the small molecule Ro-08-2750 (Tocris Cat. No. 2272, Bristol, UK)), cells were cultured as before. Briefly, after 96 h in MDM, the medium was supplemented with Ro-08-2750 at a final concentration of 10 μM (0.8% DMSO) or with the vehicle, DMSO 0.8%, for 48 h. Then cells were collected for further analyses.
All the procedures were performed as previously described^1.

With `Cc1cc2nc3c(=O)[nH]c(=O)nc-3n(C)c2cc1C=O` [Ro 08-2750, 2,3,4,10-Tetrahydro-7,10-dimethyl-2,4-dioxobenzo[g]pteridine-8-carboxaldehyde], in assay [1], the “expression of UPS system and muscle degradation genes” value is “significantly rescued”. The “impaired fusion capacity phenotype” value in the assay on DM1-14 and DM1-16 lines is “dramatically reversed”. Further, the “expression of P21” value in the assay on P21 (10 μM, all cell lines (immortalized DM1 myoblasts, DM1-14, DM1-16)) is recorded as “rescued”. Besides, the P21 levels result with P21 (MD1 TDMs, Ro-08-2750 10 μM / agomiR-107) is “not to produce a significant effect”.
